Source: patent US7307084B2, “Cyclic benzimidazoles” (Altana Pharma AG, priority 2003, dated 2007)

Test system: pentagastrin-stimulated acid secretion of the perfused rat stomach
Assay: Testing of the secretion-inhibiting action on the perfused rat stomach
Details: dose 1 μmol/kg i.d. (intraduodenal), perfused stomach of anesthetized female CD rat, in vivo
From the text: In Table A which follows, the influence of the compounds according to the invention on the pentagastrin-stimulated acid secretion of the perfused rat stomach after intraduodenal administration in vivo is shown.
The abdomen of anesthetized rats (CD rat, rat, female, 200-250 g; 1.5 g/kg l.m. urethane) was opened after trachetomy by a median upper abdominal incision and a PVC catheter was fixed transorally in the esophagus and another via the pylorus such that the ends of the tubes just projected into the gastric lumen. The catheter leading from the pylorus led outward into the right abdominal wall through a side opening.
After thorough rinsing (about 50-100 ml), warm (37° C.) physiological NaCl solution was continuously passed through the stomach (0.5 ml/min, pH 6.8-6.9; Braun-Unita 1). The pH (pH meter 632, glass electrode EA 147; φ=5 mm, Metrohm) and, by titration with a freshly prepared 0.01N NaOH solution to pH 7 (Dosimat 665 Metrohm), the secreted HCl were determined in the effluent in each case collected at an interval of 15 minutes.
The gastric secretion was stimulated by continuous infusion of 1 μg/kg (=1.65 ml/h) of i.v. pentagastrin (left femoral vein) about 30 min after the end of the operation (i.e. after determination of 2 preliminary fractions). The substances to be tested were administered intraduodenally in a 2.5 ml/kg liquid volume 60 min after the start of the continuous pentagastrin infusion.
The body temperature of the animals was kept at a constant 37.9-38° C. by infrared irradiation and heat pads (automatic, stepless control by means of a rectal temperature sensor).

Question: Which “Inhibition of acid secretion” value does the source give for `Cc1nc2c3c(c(C(=O)N4CCC4)cc2n1C)CCC(c1ccccc1)O3` (centres unmarked) [Example 18, 1-Azetidin-1-yl-1-(2,3-dimethyl-8-phenyl-3,6,7,8-tetrahydro-chromeno[7,8-d]imidazol-5-yl)-methanone] here?
Answer: >50%

Question: With `CNC(=O)c1cc2c(nc(C)n2C)c2c1CC[C@@H](c1ccccc1)N2` [32 (8S), (8S)-2,3-dimethyl-8-phenyl-6,7,8,9-tetrahydro-3H-imidazo[4,5-h]quinoline-5-carboxylic acid methylamide] as the molecule, how does the “Inhibition of acid secretion” value read?
Answer: >50%

Question: For `CN(C)C(=O)c1cc2c(nc(C3CC3)n2C)c2c1CCC(c1ccccc1)O2` (centres unmarked) [Example 10, 2-Cyclopropyl-3-methyl-8-phenyl-3,6,7,8-tetrahydro-chromeno[7,8-d]imidazole-5-carboxylic Acid Dimethylamide], which “Inhibition of acid secretion” value is on record?
Answer: >50%

Question: With `Cc1nc2c3c(c(C(=O)N(C)C)cc2n1C)CCC(c1ccccc1)N3` (centres unmarked) [Example 2, 2,3-Dimethyl-8-phenyl-6,7,8,9-tetrahydro-3H-imidazo[4,5-h]quinoline-5-carboxylic Acid Dimethylamide] as the molecule, how does the “Inhibition of acid secretion” value read?
Answer: >50%

Question: With `CNC(=O)c1cc2c(nc(C)n2C)c2c1CCC(c1ccccc1)N2` (centres unmarked) [Example 29, 2,3-Dimethyl-8-phenyl-6,7,8,9-tetrahydro-3H-imidazo[4,5-h]quinoline-5-carboxylic Acid Methylamide] as the molecule, how does the “Inhibition of acid secretion” value read?
Answer: >50%

Question: For `Cc1nc2c3c(c(C(=O)N(C)C)cc2n1C)CCC(c1ccccc1)O3` (centres unmarked) [Example 1, 2,3-Dimethyl-phenyl-3,6,7,8-tetrahydro-chromeno[7,8-a]imidazole-5-carboxylic Acid Dimethylamide], which “Inhibition of acid secretion” value is on record?
Answer: >50%

Question: With `CNC(=O)c1cc2c(nc(C)n2C)c2c1CCC(c1ccccc1)O2` (centres unmarked) [Example 4, 2,3-Dimethyl-8-phenyl-4,6,7,8-tetrahydro-chromeno[7,8-d] imidazole-5-carboxylic Acid Methylamide] as the molecule, how does the “Inhibition of acid secretion” value read?
Answer: >50%

Question: For `Cc1nc2c3c(c(C(=O)N(C)C)cc2n1C)CC[C@@H](c1ccccc1)O3` [33 (8S), (8S)-2,3-Dimethyl-8-phenyl-3,6,7,8-tetrahydro-chromeno[7,8-d]imidazole-5-carboxylic Acid Dimethylamide], which “Inhibition of acid secretion” value is on record?
Answer: >50%

Test system: not given
Assay: not given
Details: not given

Question: With `COCCNC(=O)c1cc2c(nc(C)n2C)c2c1CCC(c1ccccc1)O2` (centres unmarked) [Example 6, 2,3-Dimethyl-8-phenyl-3,6,7,8-tetrahydro-chromeno[7,8-d]imidazole-5-carboxylic Acid (2-Methoxy-ethyl)amide] as the molecule, how does the melting point read?
Answer: 254 to 256 °C

Question: For `CC(=O)N(C)c1cc2c(nc(C)n2C)c2c1CCC(c1ccccc1)O2` (centres unmarked) [Example 23, N-(2,3-Dimethyl-8-phenyl-3,6,7,8-tetrahydro-chromeno[7,8-d]imidazol-5-yl)-N-methyl-acetamide], which melting point is on record?
Answer: 214 to 216 °C

Question: Which melting point does the source give for `Cc1nc2c3c(c(C(N)=O)cc2n1C)CCC(c1ccccc1)O3` (centres unmarked) [Example 3, 2,3-Dimethyl-8-phenyl-3,6,7,8tetrahydro-chromeno[7,8-d]imidazole-5-carboxylic Acid Amide] here?
Answer: 264 to 267 °C

Question: With `Cc1nc2c3c(ccc2n1C)CCC(c1ccccc1)O3` (centres unmarked) [Example 36, 2,3-Dimethyl-8-phenyl-3,6,7,8-tetrahydro-chromeno[7,8-d]imidazole] as the molecule, how does the melting point read?
Answer: 161 to 164 °C

Question: With `CN(C)C(=O)c1cc2c(nc(C3CC3)n2C)c2c1CCC(c1ccccc1)O2` (centres unmarked) [Example 10, 2-Cyclopropyl-3-methyl-8-phenyl-3,6,7,8-tetrahydro-chromeno[7,8-d]imidazole-5-carboxylic Acid Dimethylamide] as the molecule, how does the melting point read?
Answer: 176 to 179 °C

Question: With `CN(C)C(=O)c1cc2c(nc(C(F)(F)F)n2C)c2c1CCC(c1ccccc1)O2` (centres unmarked) [Example 14, 3-Methyl-8-phenyl-2-trifluoromethyl-3,6,7,8-tetrahydro-chromeno[7,8-d]imidazole-5-carboxylic Acid Dimethylamide] as the molecule, how does the melting point read?
Answer: 223 to 225 °C

Question: Which melting point does the source give for `CCOC(=O)c1cc2c(nc(C)n2C)c2c1CCC(c1ccccc1)N2` (centres unmarked) [Example 25, Ethyl 2,3-dimethyl-8-phenyl-6,7,8,9-tetrahydro-3H-imidazo[4,5-h]quinoline-5-carboxylate] here?
Answer: 185 to 186 °C

Question: For `Cc1nc2c3c(c(C(=O)N4CCOCC4)cc2n1C)CCC(c1ccccc1)O3` (centres unmarked) [Example 7, 1-(2,3-Dimethyl-8-phenyl-3,6,7,8-tetrahydro-chromeno[7,8-d]imidazol-5-yl)-1-morpholin-4-yl-methanone], which melting point is on record?
Answer: 291 to 293 °C

Question: Which melting point does the source give for `Cc1nc2c3c(c(C(=O)NN4CC4)cc2n1C)CCC(c1ccccc1)N3` (centres unmarked) here?
Answer: 192 to 193 °C

Question: Which melting point does the source give for `Cc1nc2c3c(c(C(=O)N4CC4)cc2n1C)CCC(c1ccccc1)O3` (centres unmarked) [Example 13, 1-Aziridin-1-yl-(2,3-dimethyl-8-phenyl-3,6,7,8-tetrahydro-chromeno[7,8-d]imidazol-5-yl)-methanone] here?
Answer: 201 to 204 °C

Question: For `Cc1nc2c3c(c(C(=O)O)cc2n1C)CCC(c1ccccc1)N3` (centres unmarked) [Example 26, 2,3-Dimethyl-8-phenyl-6,7,8,9-tetrahydro-3H-imidazo[4,5-h]quinoline-5-carboxylic Acid], which melting point is on record?
Answer: 325 to 326 °C

Question: With `Cc1nc2c3c(c(CO)cc2n1C)CCC(c1ccccc1)O3` (centres unmarked) [Example 17, (2,3-Dimethyl-8-phenyl-3,6,7,8-tetrahydro-chromeno[7,8-d]imidazol-5-yl)methanol] as the molecule, how does the melting point read?
Answer: 279 to 281 °C

Question: With `COCCOCc1cc2c(nc(C)n2C)c2c1CCC(c1ccccc1)O2.O=C(O)C(=O)O` (centres unmarked) [Example 12, 5-(2-Methoxy-ethoxymethyl)-2,3-dimethyl-8-phenyl-3,6,7,8-tetrahydro-chromeno[7,8-d]-imidazole Oxalic Acid] as the molecule, how does the melting point read?
Answer: 131 to 133 °C

Question: With `Cc1nc2c3c(c(C(=O)NCC(O)CO)cc2n1C)CCC(c1ccccc1)O3` (centres unmarked) [Example 21, 2,3-Dimethyl-8-phenyl-3,6,7,8tetrahydro-chromeno[7,8-d]imidazole-5-carboxylic Acid (2,3-Dihydroxy-propyl)amide] as the molecule, how does the melting point read?
Answer: 268 to 270 °C

Question: Which melting point does the source give for `CCOC(=O)c1cc2c(nc(C)n2C)c2c1CCC(c1ccccc1)O2` (centres unmarked) [Example 15, 2,3-Dimethyl-8-phenyl-3,6,7,8-tetrahydro-chromeno[7,8-d]imidazole-5-carboxylic Acid Ethyl Ester] here?
Answer: 172 to 173 °C

Question: With `Cc1nc2c3c(c(C(=O)N(C)C)cc2n1C)CCC(c1ccccc1)N3` (centres unmarked) [Example 2, 2,3-Dimethyl-8-phenyl-6,7,8,9-tetrahydro-3H-imidazo[4,5-h]quinoline-5-carboxylic Acid Dimethylamide] as the molecule, how does the melting point read?
Answer: 167 to 170 °C

Question: Which melting point does the source give for `CCc1nc2c3c(c(C(=O)N(C)C)c(-c4ccccc4)c2n1C)CCCO3` [Example 24, 2-Ethyl-3-methyl-4-phenyl-3,6,7,8-tetrahydro-chromeno[7,8-d]imidazole-5-carboxylic Acid Dimethylamide] here?
Answer: 195 to 197 °C

Question: For `CNC(=O)c1cc2c(nc(C)n2C)c2c1CCC(c1ccccc1)N2` (centres unmarked) [Example 29, 2,3-Dimethyl-8-phenyl-6,7,8,9-tetrahydro-3H-imidazo[4,5-h]quinoline-5-carboxylic Acid Methylamide], which melting point is on record?
Answer: 259 °C

Question: Which melting point does the source give for `CC(C)c1nc2c3c(c(C(=O)N(C)C)cc2n1C)CCC(c1ccccc1)O3` (centres unmarked) [Example 9, 2-Isopropyl-3-methyl-8-phenyl-3,6,7,8-tetrahydro-chromeno[7,8-d]imidazole-5-carboxylic Acid Dimethylamide] here?
Answer: 179 to 180 °C

Question: Which melting point does the source give for `Cc1nc2c3c(c(C(N)=O)cc2n1C)CCC(c1ccccc1)N3` (centres unmarked) [Example 28, 2,3-Dimethyl-8-phenyl-6,7,8,9-tetrahydro-3H-imidazo[4,5-h]quinoline-5-carboxylic Acid Amide] here?
Answer: 311 to 319 °C

Question: For `CCCNC(=O)c1cc2c(nc(C)n2C)c2c1CCC(c1ccccc1)O2` (centres unmarked) [Example 19, 2,3Dimethyl-8-phenyl-3,6,7,8-tetrahydro-chromeno[7,8-d]imidazole-5-carboxylic Acid Propyl-amide], which melting point is on record?
Answer: 273 °C

Question: With `COCn1c(C)nc2c3c(c(C(=O)N(C)C)cc21)CCC(c1ccccc1)O3` (centres unmarked) [Example 22, 3Methoxymethyl-2-methyl-8-phenyl-3,6,7,8-tetrahydro-chromeno[7,8-d]imidazole-5-carboxylic Acid Dimethylamide] as the molecule, how does the melting point read?
Answer: 213 to 215 °C

Question: For `Cc1nc2c3c(c(C(=O)NCCO)cc2n1C)CCC(c1ccccc1)O3` (centres unmarked) [Example 5, 2,3 Dimethyl-8-phenyl-3,6,7,8-tetrahydro-chromeno[7,8-d]imidazole-5-carboxylic Acid (2-Hydroxy-ethyl)-amide], which melting point is on record?
Answer: 228 to 229 °C

Question: With `COCc1cc2c(nc(C)n2C)c2c1CCC(c1ccccc1)O2.O=C(O)C(=O)O` (centres unmarked) [Example 11, 5-Methoxymethyl-2,3-dimethyl-8-phenyl-3,6,7,8-tetrahydro-chromeno[7,8-d]imidazole Oxalic Acid] as the molecule, how does the melting point read?
Answer: 204 to 205 °C

Question: Which melting point does the source give for `Cc1nc2c3c(c(CO)cc2n1C)CCC(c1ccccc1)N3` (centres unmarked) [Example 31, 5-Hydroxymethyl-2,3-dimethyl-8-phenyl-6,7,8,9tetrahydro-3H-imidazo[4,5-h]quinoline] here?
Answer: 253 to 254 °C

Question: Which melting point does the source give for `Cc1nc2c3c(c(C(=O)O)cc2n1C)CCC(c1ccccc1)O3` (centres unmarked) [Example 16, 2,3-Dimethyl-8-phenyl-3,6,7,8-tetrahydro-chromeno[7,8-d]imidazole-5-carboxylic Acid] here?
Answer: 323 to 326 °C

Question: For `Cc1nc2c3c(c(C(=O)NC4CC4)cc2n1C)CCC(c1ccccc1)O3` (centres unmarked) [Example 35, 2,3-Dimethyl-8-phenyl-3,6,7,8-tetrahydro-chromeno[7,8-d]imidazole-5-carboxylic Acid Cyclopropylamide], which melting point is on record?
Answer: 312 to 313 °C
